Values quoted from earlier work, collected in US20180255779A1, “TRIAZOLE FORMULATIONS” (Vive Crop Protection Inc., priority 2013, published 2018).
Read-outs that look alike come from different tables or passages of the source.

Experiments:
[1] = not given; remark: listed apart in the source
[2] = octanol-water

Row | SMILES | Photolytic Stability, DT50 (pH 7) | Kow, log P [2] | other results
1 | Fc1ccc([C@]2(Cn3cncn3)O[C@H]2c2ccccc2Cl)cc1 (racemic) [Epoxiconazole, (2RS,3SR)-1-[3-(2-chlorophenyl)-2,3-epoxy-2-(4-fluorophenyl)propyl]-1H-1,2,4-triazole] | DT50: 52 d (aqueous photolysis at pH 7) | – | –
2 | CCCCC(C#N)(Cn1cncn1)c1ccc(Cl)cc1 (racemic) [Myclobutanil, (RS)-2-(4-chlorophenyl)-2-(1H-1,2,4-triazol-1-ylmethyl)hexanenitrile] | – | log P: 2.89 | Solubility ([1]; heptane at 20° C.): 1020 mg/L (heptane at 20° C.); Solubility ([1]; methanol and acetone, both at 20° C.): 250000 mg/L (methanol and acetone, both at 20° C.); Solubility ([1]; water at 20° C.): 132 mg/L (water at 20° C.); Photolytic Stability, DT50 (aqueous photolysis at pH 7): DT50: 15 d (aqueous photolysis at pH 7)
3 | FC(F)C(F)(F)OCC(Cn1cncn1)c1ccc(Cl)cc1Cl (racemic) [Tetraconazole, (RS)-2-(2,4-dichlorophenyl)-3-(1H-1,2,4-triazol-1-yl)propyl 1,1,2,2-tetrafluoroethyl ether] | 217 days | – | –
4 | CC1(C)CC/C(=C\c2ccc(Cl)cc2)C1(O)Cn1cncn1 (racemic) [Triticonazole, (RS)-(E)-5-(4-chlorobenzylidene)-2,2-dimethyl-1-(1H-1,2,4-triazol-1-ylmethyl)cyclopentanol] | DT50: 3.1 d (aqueous photolysis at pH 7) | – | –
5 | CC(C1CC1)C(O)(Cn1cncn1)c1ccc(Cl)cc1 (stereo not drawn) [Cyproconazole, (2RS,3RS;2RS,3SR)-2-(4-chlorophenyl)-3-cyclopropyl-1-(1H-1,2,4-triazol-1-yl)butan-2-ol] | DT 50: 40 d (aqueous photolysis at pH 7) | – | –
6 | CC1COC(Cn2cncn2)(c2ccc(Oc3ccc(Cl)cc3)cc2Cl)O1 (stereo not drawn) [Difenoconazole, 3-chloro-4-[(2RS,4RS;2RS,4SR)-4-methyl-2-(1H-1,2,4-triazol-1-ylmethyl)-1,3-dioxolan-2-yl]phenyl 4-chlorophenyl ether] | – | log P: 4.36 | –
7 | CCCC1COC(Cn2cncn2)(c2ccc(Cl)cc2Cl)O1 (stereo not drawn) [Propiconazole, (2RS,4RS;2RS,4SR)-1-[2-(2,4-dichlorophenyl)-4-propyl-1,3-dioxolan-2-ylmethyl]-1H-1,2,4-triazole] | – | log P: 3.72 | Solubility ([1]; heptane at 20° C.): 1585 mg/L (heptane at 20° C.); Solubility ([1]; water at 20° C.): 150 mg/L (water at 20° C.)
